Where “and” joins values, the source holds several entries; their conditions need not be identical. Equal entries are not always repeated. Inconclusive results and toxic doses are left out. The calls were made as follows: active = survival T/C of 150% or more; inactive = T/C below 125% in these data.
Tested on: BDF1 mice, P388 leukemia ip, median survival T/C
Assay: NCI In Vivo Anticancer Drug Screen. Data for tumor model P388 Leukemia (intraperitoneal) in B6D2F1 (BDF1) mice
Conditions: endpoint: median survival time, higher = longer survival
How it was run: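 Compound-treated tumour-bearing mice were compared with vehicle-treated controls. Survival was recorded, and the value is the treated-group measurement divided by the control-group measurement (T/C).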

[1] = dose: 25.0 mg/kg/injection, schedule: Q01DX009 (ip), vehicle: saline
[2] = dose: 50.0 mg/kg/injection, schedule: Q01DX009 (ip), vehicle: saline
[3] = dose: 100.0 mg/kg/injection, schedule: Q01DX009 (ip), vehicle: saline
[4] = dose: 100.0 mg/kg/injection, schedule: Q04DX003 (ip), vehicle: saline with Tween-80
[5] = dose: 200.0 mg/kg/injection, schedule: Q04DX003 (ip), vehicle: saline with Tween-80
[6] = dose: 300.0 mg/kg/injection, schedule: Q01DX009 (ip), vehicle: saline with Tween-80
[7] = dose: 400.0 mg/kg/injection, schedule: Q04DX003 (ip), vehicle: saline with Tween-80
[8] = dose: 25.0 mg/kg/injection, schedule: Q01DX009 (ip), vehicle: saline with Tween-80
[9] = dose: 50.0 mg/kg/injection, schedule: Q01DX009 (ip), vehicle: saline with Tween-80
[10] = dose: 100.0 mg/kg/injection, schedule: Q01DX009 (ip), vehicle: saline with Tween-80
[11] = dose: 200.0 mg/kg/injection, schedule: Q01DX009 (ip), vehicle: saline with Tween-80
[12] = dose: 100.0 mg/kg/injection, schedule: Q01DX009 (ip), vehicle: other
[13] = dose: 100.0 mg/kg/injection, schedule: Q04DX003 (ip), vehicle: Klucel (hydroxypropylcellulose) (HPC)
[14] = dose: 200.0 mg/kg/injection, schedule: Q04DX003 (ip), vehicle: Klucel (hydroxypropylcellulose) (HPC)
[15] = dose: 400.0 mg/kg/injection, schedule: Q04DX003 (ip), vehicle: Klucel (hydroxypropylcellulose) (HPC)

Measured: T/C

O=C/C(Cl)=C(/Cl)C(=O)O
inactive: dose: 6.25 mg/kg/injection, schedule: Q04DX002 (ip), vehicle: saline with Tween-80 110 % of control | dose: 12.5 mg/kg/injection, schedule: Q04DX002 (ip), vehicle: saline with Tween-80 108 % of control | dose: 25.0 mg/kg/injection, schedule: Q04DX002 (ip), vehicle: saline with Tween-80 103 % of control

C(/C=C\c1ccccc1)=Nc1ccccc1
active: dose: 400.0 mg/kg/injection, schedule: Q01DX009 (ip), vehicle: saline with Tween-80 150 % of control
inactive: [1] 91 % of control | dose: 25.0 mg/kg/injection, schedule: Q04DX003 (ip), vehicle: saline 95 % of control | [2] 95 % of control | dose: 50.0 mg/kg/injection, schedule: Q04DX003 (ip), vehicle: saline 100 % of control | dose: 88.0 mg/kg/injection, schedule: Q01DX009 (ip), vehicle: saline with Tween-80 105 % of control | [3] 104 % of control | [4] 104 % of control | dose: 100.0 mg/kg/injection, schedule: Q04DX003 (ip), vehicle: saline 100 % of control | dose: 132.0 mg/kg/injection, schedule: Q01DX009 (ip), vehicle: saline with Tween-80 110 % of control | [5] 118 % of control | [6] 110 % of control | [7] 118 % of control

NC(=S)N/N=C/c1ccc(OC(=O)COc2ccccc2)cn1
inactive: dose: 1.56 mg/kg/injection, schedule: Q01DX009 (ip), vehicle: saline with Tween-80 124 % of control
active: dose: 12.5 mg/kg/injection, schedule: Q01DX009 (ip), vehicle: saline with Tween-80 163 % of control | [8] 181 % of control | [9] 209 % of control | [10] 235 % of control

O=C(OC1C(OC(=O)C(Cl)Cl)C(OC(=O)C(Cl)Cl)C(OC(=O)C(Cl)Cl)C(OC(=O)C(Cl)Cl)C1OC(=O)C(Cl)Cl)C(Cl)Cl (stereo not given)
inactive: dose: 37.5 mg/kg/injection, schedule: Q01DX001 (ip), vehicle: saline sonified 95 % of control | dose: 75.0 mg/kg/injection, schedule: Q01DX001 (ip), vehicle: saline sonified 100 % of control | dose: 150.0 mg/kg/injection, schedule: Q01DX001 (ip), vehicle: saline sonified 86 % of control

FC(F)(F)c1nc2nc(Br)c(Br)nc2[nH]1
inactive: [10] 100 % of control | [4] 87 % of control | [11] 90 % of control | [7] 91 % of control

CC(=O)OCC(=O)[C@@]1(O)CC[C@H]2[C@@H]3C[C@H](F)C4=CC(=O)CC[C@]4(C)[C@H]3C(=O)C[C@@]21C
inactive: [12] 100 % of control

CN(C)CCC(=O)C(=Cc1ccc(Cl)c(Cl)c1)C(=O)CCN(C)C
inactive: dose: 50.0 mg/kg/injection, schedule: Q01DX005 (ip), vehicle: saline 109 % of control | dose: 100.0 mg/kg/injection, schedule: Q01DX005 (ip), vehicle: saline 114 % of control

CCNC(C)(C)C(SS(=O)(=O)O)c1ccc(Cl)s1 (stereo not given)
inactive: [8] 103 % of control | [9] 95 % of control and 121 % of control | dose: 75.0 mg/kg/injection, schedule: Q01DX009 (ip), vehicle: saline with Tween-80 103 % of control | [10] 102 % of control | [4] 95 % of control | [11] 102 % of control | [5] 94 % of control | [6] 101 % of control

COc1ccc(C(C(N)=O)N2CCCCC2)cc1 (stereo not given)
inactive: [12] 115 % of control | [13] 100 % of control | dose: 200.0 mg/kg/injection, schedule: Q01DX009 (ip), vehicle: other 105 % of control | [14] 90 % of control | dose: 400.0 mg/kg/injection, schedule: Q01DX009 (ip), vehicle: other 100 % of control | [15] 104 % of control

O=[N+]([O-])c1ccc(Sc2ccc(Cl)cc2)c2c1no[n+]2[O-]
inactive: dose: 15.0 mg/kg/injection, schedule: Q01DX009 (ip), vehicle: saline with Tween-80 112 % of control | dose: 30.0 mg/kg/injection, schedule: Q01DX009 (ip), vehicle: saline with Tween-80 112 % of control | dose: 60.0 mg/kg/injection, schedule: Q01DX009 (ip), vehicle: saline with Tween-80 112 % of control

CCN(CCNc1ccc(CO)c2sc3ccccc3c(=O)c12)CC(C)(C)O
inactive: dose: 50.0 mg/kg/injection, schedule: Q04DX003 (ip), vehicle: Klucel (hydroxypropylcellulose) (HPC) 102 % of control | [13] 100 % of control | [14] 106 % of control

O=S(=O)(c1ccccc1)N1CCOC1=S
inactive: [4] 114 % of control | [5] 95 % of control | [7] 95 % of control

CCCCN(C)C(=S)S[Te](SC(=S)N(C)CCCC)(SC(=S)N(C)CCCC)SC(=S)N(C)CCCC
inactive: dose: 45.0 mg/kg/injection, schedule: Q01DX010 (ip), vehicle: carboxymethylcellulose (CMC) 100 % of control | dose: 90.0 mg/kg/injection, schedule: Q01DX010 (ip), vehicle: carboxymethylcellulose (CMC) 105 % of control | dose: 180.0 mg/kg/injection, schedule: Q01DX010 (ip), vehicle: carboxymethylcellulose (CMC) 115 % of control | dose: 360.0 mg/kg/injection, schedule: Q01DX010 (ip), vehicle: carboxymethylcellulose (CMC) 110 % of control

CC(=O)OCc1c(O)c2c(c(O)c1COC(C)=O)C(=O)C=CC2=O
inactive: dose: 1.56 mg/kg/injection, schedule: Q01DX009 (ip), vehicle: saline 107 % of control | dose: 3.12 mg/kg/injection, schedule: Q01DX009 (ip), vehicle: saline 96 % of control | dose: 6.25 mg/kg/injection, schedule: Q01DX009 (ip), vehicle: saline 105 % of control | dose: 12.5 mg/kg/injection, schedule: Q01DX009 (ip), vehicle: saline 87 % of control | [1] 94 % of control

O=S(=O)(CS(=O)(=O)C(F)(F)C(F)(F)C(F)(F)C(F)(F)F)C(F)(F)C(F)(F)C(F)(F)C(F)(F)F
inactive: [2] 114 % of control | [3] 114 % of control | dose: 200.0 mg/kg/injection, schedule: Q01DX009 (ip), vehicle: saline 106 % of control

CCCCNS(=O)(=O)c1ccc(OC)c(N)c1
inactive: [13] 95 % of control | [14] 100 % of control | [15] 100 % of control

C#CCOCC(O)CO (stereo not given)
inactive: dose: 6.25 mg/kg/injection, schedule: Q01DX009 (ip), vehicle: water 88 % of control | dose: 12.5 mg/kg/injection, schedule: Q01DX009 (ip), vehicle: water 106 % of control | dose: 12.5 mg/kg/injection, schedule: Q04DX003 (ip), vehicle: water 93 % of control | dose: 25.0 mg/kg/injection, schedule: Q01DX009 (ip), vehicle: water 117 % of control | dose: 25.0 mg/kg/injection, schedule: Q04DX003 (ip), vehicle: water 111 % of control | dose: 50.0 mg/kg/injection, schedule: Q01DX009 (ip), vehicle: water 117 % of control and 123 % of control | dose: 50.0 mg/kg/injection, schedule: Q04DX003 (ip), vehicle: water 95 % of control | dose: 100.0 mg/kg/injection, schedule: Q01DX009 (ip), vehicle: water 95 % of control and 122 % of control | dose: 100.0 mg/kg/injection, schedule: Q04DX003 (ip), vehicle: water 98 % of control | dose: 200.0 mg/kg/injection, schedule: Q01DX009 (ip), vehicle: water 110 % of control

Cc1ccc(C2=NNc3n[nH]c(=S)n3N2)cc1
inactive: [4] 91 % of control | [5] 95 % of control | [7] 100 % of control

CCCCCCCC[N+](CC)(CC)CCOC(=O)C(C1CCCC1)C1CCCC1
inactive: dose: 0.9 mg/kg/injection, schedule: Q04DX003 (ip), vehicle: saline 90 % of control | dose: 1.32 mg/kg/injection, schedule: Q01DX001 (ip), vehicle: saline 87 % of control | dose: 1.8 mg/kg/injection, schedule: Q04DX003 (ip), vehicle: saline 109 % of control | dose: 2.65 mg/kg/injection, schedule: Q01DX001 (ip), vehicle: saline 100 % of control | dose: 3.6 mg/kg/injection, schedule: Q01DX009 (ip), vehicle: saline 110 % of control | dose: 3.6 mg/kg/injection, schedule: Q04DX003 (ip), vehicle: saline 109 % of control | dose: 5.3 mg/kg/injection, schedule: Q01DX001 (ip), vehicle: saline 91 % of control | dose: 5.3 mg/kg/injection, schedule: Q04DX003 (ip), vehicle: saline 90 % of control

From PubChem BioAssay AID328 (DTP/NCI, 2004)
